Experimental data taken from article PMC8615997, “The Pseudo-Symmetric N-benzyl Hydroxyethylamine Core in a New Series of Heteroarylcarboxyamide HIV-1 Pr Inhibitors: Synthesis, Molecular Modeling and Biological Evaluation” (Biomolecules, 2021).
pIC50: −log10 of the molar value.

target: T1, recombinant wild-type HIV-1 PR (Human immunodeficiency virus type 1 group M subtype B, UniProt P04585); assay: In vitro fluorometric HIV-1 protease inhibition assay (fluorogenic substrate Abz-Thr-Ile-Nle-Phe(p-NO2)-Gln-Arg-NH2, pH 5.5); assay type: biochemical; settings: not given
T1 construct: recombinant wild-type HIV-1 PR from Bachem; purchased Bachem
Protocol: IC50 values were determined at pH 5.5 using recombinant wild-type HIV-1 PR from Bachem and the fluorogenic substrate Abz-Thr-Ile-Nle-Phe(p-NO2)-Gln-Arg-NH2 (Abz-NF⁄-6; Bachem AG, Bubendorf, CH). […] The assay was performed as follows: Dilution Buffer: 100 mM MES buffer, pH 5.5, containing 400 mM NaCl, 1 mM EDTA, 1 mM DTT and 1 mg/mL BSA. Solution A: 10 μL of a substrate stock solution in DMSO (10 mg/ml, 10.6 mM) were diluted in 1.99 ml of dilution buffer to a final concentration of […]. Solution B: 10 μL of a protease stock solution (0.4 mg/mL) in 10 mM sodium phosphate buffer, pH 6.5, containing 1 mM EDTA, 10% glycerol, 0.05% mercaptoethanol, 50 mM NaCl, were diluted 100 times with the dilution buffer, pH 5.5, to a final concentration of 0.004 mg/ml.
Assay: 114 μL of solution A, 11 μL of solution B and 75 μL of the dilution buffer were pre-incubated in a cuvette at 25 °C, and the fluorescence was recorded at 325 nm excitation and 420 nm emission for 10 min. A total of 2 μL of the inhibitor in DMSO was then added, and the fluorescence was recorded for a further 10 min. […] IC50 was obtained by measuring the relative residual enzyme activity (ratio of the increase of fluorescence velocities before and after the addition of inhibitor) and by fitting the residual activity vs. inhibitor concentration semilog plots to a tetraparametric logistic function (Sigma plot 2001, SPSS Inc., Chicago, IL, USA). All the measures were triplicated.
IC50 values were obtained on recombinant wild-type HIV protease by measuring the initial rates of hydrolysis of the fluorogenic substrate Abz-Thr-Ile-Nle-Phe(NO2)-Gln-Arg (Table 1). The initial rates of the enzyme-catalyzed reactions were measured at different inhibitors concentrations, while the reference rates for the not-inhibited reactions were measured each time before the addition of the inhibitors. IC50 was obtained by measuring the relative residual enzyme activity (ratio of the increase of fluorescence velocities before and after the addition of inhibitor) and by fitting the residual activity vs. inhibitor concentration semilog plots to a tetraparametric logistic function.

| SMILES | pIC50 |
| --- | --- |
| COc1ccc(S(=O)(=O)N(Cc2ccccc2)C[C@@H](O)[C@H](Cc2ccccc2)NC(=O)c2ccc3occc3c2)cc1 [Compound 8b, N-((2S,3R)-3-hydroxy-4-(N-benzyl-4-methoxyphenylsulfonamido)-1-phenylbutan-2-yl)benzofuran-5-carboxamide] | 8.02 |
| COc1ccc(S(=O)(=O)N(Cc2ccccc2)C[C@@H](O)[C@H](Cc2ccccc2)NC(=O)c2ccc3sccc3c2)cc1 [Compound 7b, N-((2S,3R)-3-hydroxy-4-(N-benzyl-4-methoxyphenylsulfonamido)-1-phenylbutan-2-yl)benzo[b]thiophene-5-carboxamide] | 8.64 |
| COc1ccc(S(=O)(=O)N(Cc2ccccc2)C[C@@H](O)[C@H](Cc2ccccc2)NC(=O)c2ccc3occc3c2)cc1OC [Compound 8c, N-((2S,3R)-3-hydroxy-4-(N-benzyl-3,4-dimethoxyphenylsulfonamido)-1-phenylbutan-2-yl)benzofuran-5-carboxamide] | 7.09 |
| COc1ccc(S(=O)(=O)N(Cc2ccccc2)C[C@@H](O)[C@H](Cc2ccccc2)NC(=O)c2ccc3sccc3c2)cc1OC [Compound 7c, N-((2S,3R)-3-hydroxy-4-(N-benzyl-3,4-dimethoxyphenylsulfonamido)-1-phenylbutan-2-yl)benzo[b]thiophene-5-carboxamide] | 8.21 |
| O=C(N[C@@H](Cc1ccccc1)[C@H](O)CN(Cc1ccccc1)S(=O)(=O)c1ccc([N+](=O)[O-])cc1)c1ccc2occc2c1 [Compound 8a, N-((2S,3R)-3-hydroxy-4-(N-benzyl-4-nitrophenylsulfonamido)-1-phenylbutan-2-yl)benzofuran-5-carboxamide] | 7.33 |
| O=C(N[C@@H](Cc1ccccc1)[C@H](O)CN(Cc1ccccc1)S(=O)(=O)c1ccc([N+](=O)[O-])cc1)c1ccc2sccc2c1 [Compound 7a, N-((2S,3R)-3-hydroxy-4-(N-benzyl-4-nitrophenylsulfonamido)-1-phenylbutan-2-yl)benzo[b]thiophene-5-carboxamide] | 8.38 |

same assay, conditions: read-out: residual activity at the 0.5 nM inhibitor

| SMILES | remaining activity at 0.0005 µM [%] |
| --- | --- |
| COc1ccc(S(=O)(=O)N(Cc2ccccc2)C[C@@H](O)[C@H](Cc2ccccc2)NC(=O)c2ccc3[nH]ccc3c2)cc1OC [Compound 9c, N-((2S,3R)-3-hydroxy-4-(N-benzyl-3,4-dimethoxyphenylsulfonamido)-1-phenylbutan-2-yl)1H-indol-5-carboxamide] | 10.2 |
| O=C(N[C@@H](Cc1ccccc1)[C@H](O)CN(Cc1ccccc1)S(=O)(=O)c1ccc([N+](=O)[O-])cc1)c1ccc2[nH]ccc2c1 [Compound 9a, N-((2S,3R)-3-hydroxy-4-(N-benzyl-4-nitrophenylsulfonamido)-1-phenylbutan-2-yl)1H-indol-5-carboxamide] | 27.7 |
| COc1ccc(S(=O)(=O)N(Cc2ccccc2)C[C@@H](O)[C@H](Cc2ccccc2)NC(=O)c2ccc3[nH]ccc3c2)cc1 [Compound 9b, N-((2S,3R)-3-hydroxy-4-(N-benzyl-4-methoxyphenylsulfonamido)-1-phenylbutan-2-yl)1H-indol-5-carboxamide] | 36.3 |
